# Source: a melting point compilation (Tetko et al.; mined from patent text by program, amines drawn as free bases though some values may be those of a salt)
row,Compound,melting point
1,O=C(O)CCCNC(=O)c1ccccc1NC(=O)c1ccccc1O,173 to 174 °C
2,Cc1ccc(-c2ccc(NC(=O)OC(C)(C)C)c([N+](=O)[O-])c2)cc1,105 to 108 °C
3,NCCCCc1cnc(-c2ccccc2)s1,62 to 64 °C
4,CN(C)c1ccc(-c2cc(=O)c(C(=O)O)cn2-c2ccc(O)c(O)c2)cc1,223 to 227 °C
5,Fc1cccc(F)c1C1=NC(c2ccc(-c3ccc(C(F)(F)F)cc3)cc2)CO1 (centres undefined),148 to 149 °C
6,O=c1[nH]nccc1-c1ccccc1,216 to 219 °C
7,CCCc1c(OCCCOc2ccc(C(=O)OCCCN(C)C)cc2F)ccc(C(C)=O)c1O,55 to 56 °C
8,N#Cc1nc(F)c(Cl)c(F)c1Cl,78 to 79 °C
9,CCOC(=O)C(C(=O)OCC)=C(SCc1ccc(OC)cc1)SCc1ccc(OC)cc1,57 to 59 °C
10,Cc1cc(C(=O)OC2CC(C)(C)NC(C)(C)C2)c(C)o1,59 to 61 °C
11,Nc1ccc(F)c(CO)c1,80 to 84 °C
12,Nc1nc2ccccc2c2c1ncn2CCCC(=O)c1ccccc1,209 to 211 °C
13,COC1=NS(=O)(=O)N(C)C(OCCCCc2ccccc2)=N1,74 to 78 °C
14,CC1(O/N=C(\C(=O)O)c2csc(N)n2)CCCC1,182 to 183 °C
15,CC(C)c1c(C(=O)Nc2ccccc2)c(-c2ccccc2)c(-c2ccc(F)cc2)n1CCCC(O)C(O)CC(=O)N(c1ccccc1)c1ccccc1 (centres undefined),228 to 233 °C
16,COc1cc(NC(=O)Nc2ccccc2)cc(Cl)n1,161 to 162 °C
17,CCOCc1nc2c(N)nc(C)c(C)c2n1CCNC(=O)C(C)C,172 to 174 °C
18,COCCNn1ncc2nc(C)ccc21,167 to 170 °C
19,CC(C)Nc1cccnc1N1CCN(C(=O)c2ccc(C(=O)N3CCN(CCO)CC3)cc2)CC1,148 to 149 °C
20,CO[C@@H]1[C@H](O)[C@@H](CO)O[C@H]1n1cnc2c(N[C@H](C)Cc3sccc3Cl)ncnc21,75 to 76 °C
21,Nc1nc2c(s1)CCN(CC=Cc1ccsc1)CC2,128 to 132 °C
22,Cc1ccc(-c2nc3ccc(CN4CCN(C)CC4)cc3[nH]2)cc1C#Cc1ccc(NC(C)C)nn1,129 to 130 °C
23,CN(C(=O)c1cn2ccc(-c3ccc(Cl)cc3)cc2n1)C(Cc1ccc(OCc2ccccc2)cc1)C(=O)O (centres undefined),222 °C
24,Cn1nnc(-c2ccc3c(c2)c(C2=CCN(CCc4nnn[nH]4)CC2)cn3-c2ccc(F)cc2)n1,131 to 132 °C
25,O=C1Nc2ccccc2N(C(=O)CN2CCCCC2CN2CCOCC2)c2ccccc21 (centres undefined),194 to 195 °C

row,Compound,melting point
1,FC(F)(F)CSc1nc2cc(Cl)ccc2[nH]1,127 to 129 °C
2,COC(=O)CCC/C=C(/c1ccc(OC)c(C(=O)OC)c1)c1cc(C)c2oc(=O)n(C)c2c1,134 to 135 °C
3,COc1ccc(-c2cc(CN3CCN(C)CC3)c(=O)n(Cc3ccc(Cl)cc3)n2)cc1F,129 to 130 °C
4,COC(=O)c1ccc(OC(=O)c2cc(C)c3c(c2C)C2(CCS3(=O)=O)OCCO2)cc1,206 to 208 °C
5,Cn1c(=S)n(C)c(=O)n(-c2c(F)cc(Cl)c3ncoc23)c1=O,209 to 211 °C
6,O=C(CS(=O)Cc1ccc([N+](=O)[O-])cc1)NO (centres undefined),227 °C
7,CCS(=O)(=O)c1cc(OCCCCCCc2cccc(OCCCC(=O)O)c2CCC(=O)O)cc(-c2ccc3c(c2)OCO3)c1,134 to 135 °C
8,CC(C)c1cccc(C(C)C)c1OCC(=O)O,84 to 87 °C
9,O=C(N[C@H]1C[C@H](C(=O)O)Nc2cc(Cl)cc(Cl)c21)OCc1ccccc1 (relative stereo),169 °C
10,Cc1cnc(N)cc1C,113 to 114 °C
11,COc1cccc(CC(=O)O)c1OCCCc1cc(OC(C)C)nn1Cc1ccc(C(F)(F)F)cc1,116 to 117 °C
12,COc1ccc(C(C#N)N(C)C(=O)C(Cl)Cl)cc1OC (centres undefined),102 °C
13,O=Cc1c(OCCCCC(=O)O)ccc(C(=O)O)c1O,165 to 166 °C
14,CCN(CC)c1ccc(C2(c3c(C)n(CC)c4ccccc34)OC(=O)c3cccnc32)c(OC2CCCC2)c1 (centres undefined),120 to 125 °C
15,O=C1c2ccccc2C(=O)c2sc(-c3cccc(F)c3)nc21,> 260 °C
16,CON(C)C(=O)c1cc2n(n1)CCC2,45 to 50 °C
17,O=C(O)c1cn(C2CC2)c2c(F)c(F)c(Cl)cc2c1=O,200 to 204 °C
18,Fc1ccc(N2CCN(CCCc3cnc4n3CCCC4)CC2)cc1,106 to 108 °C
19,CCCCCCCC/C=C\CCCCCCCC(=O)NCCNC(=O)CCNC(=O)C1OC(C)(C)OCC1(C)C (centres undefined),110 to 112 °C
20,COCCOc1cc(CCC(=O)O)n(Cc2ccc(Cl)cc2Cl)n1,111 to 113 °C
21,CCOC1=NC(N)=C(C(=O)OC)C(c2ccccc2F)C1C(=O)OC (centres undefined),180 °C
22,CC(C)n1nc(Cl)cc1O,138 to 140 °C
23,COc1ccc2c3c1O[C@H]1C[C@@H](O)C=C[C@@]31CCN(CCN1CCOCC1)C2,101 to 104 °C
24,CC(C)(C)OC(=O)NCCc1cccc(-c2nc(=O)c3ccccc3s2)n1,170 to 171 °C
25,COc1ccc(C(=O)Oc2ccccc2)cc1Nc1ccccc1,130 to 131 °C

row,Compound,melting point
1,O=C(CCCN1CCCCC1)c1ccc2oc3ccc(C(=O)CCCN4CCCCC4)cc3c(=O)c2c1,93 to 95 °C
2,COc1cc(OS(C)(=O)=O)ccc1C1=NC2=NCC(=O)NC2=N1,> 260 °C
3,CCCP(=O)(CCC)Cc1ccc(N)cc1,104 to 106 °C
4,CNC(=O)c1ccccc1-c1cc(-c2ccccc2)on1,159 to 160 °C
5,Nc1ncc(Oc2ccc(Cl)cc2)c(N2CCNCC2)n1,93 to 95 °C
6,COC1CN(c2ccc(N3C[C@H](CNC(C)=O)OC3=O)cc2F)C1,160 to 162 °C
7,Nc1c(-c2cc(Cl)ccc2O)c2c(C(F)(F)F)cc(C(F)(F)F)cc2[nH]c1=O,230 to 233 °C
8,Cc1nc2cc(Oc3ncccc3C(=O)NCc3ccc(C(C)(C)O)cc3)ccc2s1,124 to 126 °C
9,FC(F)(F)c1ccc(-c2cc(C(F)(F)F)n3ncc(-c4ccncc4)c3n2)cc1,261 °C
10,O=C(C=C(c1ccccc1)c1ccccc1)NCCCCc1cccnc1,78 to 80 °C
11,C=CCOC[C@H](NC(=O)[C@@H](NC(=O)[C@H](Cc1ccc(OCC=C)cc1)NC(=O)OC(C)(C)C)C(C)C)C(=O)OC,109 to 111 °C
12,CCCCCCCCCCC1(CCCCCCCCCC)c2cc(Br)ccc2-c2ccc(N(c3ccccc3)c3ccccc3)cc21,66.8 to 69.2 °C
13,COc1cc(NC(=O)N2CCOCN2)c(F)cc1Cl,145 to 147 °C
14,N#CC(C=O)c1cccc(C(F)(F)F)c1 (centres undefined),103 to 106 °C
15,CCOC(=O)C12CCNC(=O)CC1COC2=O (centres undefined),137 to 138 °C
16,COc1cccc2c1nc(C(F)F)n2-c1nc(N2CCOCC2)nc2c1ncn2-c1cccnc1,206 to 209 °C
17,O=C(NCCc1ccccc1)Nc1ccc2ncc(Br)cc2n1,245 to 246 °C
18,COc1cc(N)c(Cl)cc1-c1nn(C2CCN(CC3CCCCC3)CC2)c(=O)o1,186 to 187 °C
19,Cc1cc(C)nc(NC(=O)Cc2cccn2C)c1,85 °C
20,Cc1cc(-n2ccnc2)c2cccc(OCc3c(Cl)ccc(S(=O)(=O)N4CC[C@H]4C(=O)O)c3Cl)c2n1,160 °C
21,Cc1cc(Cl)ccc1N1CN(C)CN(C)C1=S,103 to 105 °C
22,O=C(CCl)N1Cc2ccccc2P1(=O)c1ccccc1 (centres undefined),167 to 169 °C
23,c1ccc(-c2nc(COc3cccc(CCCn4ccnc4)c3)cs2)cc1,63 to 64 °C
24,C/C=C/c1cc2c(s1)[C@@H](OC(C)=O)[C@H](OC(C)=O)C[C@]2(OC(C)=O)C(=O)OC,140 to 143 °C
25,Cc1cc([N+](=O)[O-])ccc1NCC1CCCO1 (centres undefined),56 to 58 °C

row,Compound,melting point
1,Nc1ccc(I)cc1C=O,105 °C
2,O=c1nc(-c2cccc(Sc3ccncc3)n2)sc2ccccc12,245 to 246 °C
3,O=C(NCCO[N+](=O)[O-])c1cnc(C(F)(F)F)s1,76 to 78 °C
4,CCCc1ccc(-c2c(-c3ccc(S(C)(=O)=O)cc3)cnn(CC(F)(F)F)c2=O)cc1,64 to 66 °C
5,Nc1c(Cl)c(C(=O)O)nc(Cl)c1Br,201 to 202 °C
6,Cc1c(-c2cnc(C(N)=O)c3[nH]c4cc(NC5CCOC5)ccc4c23)cccc1N1Cc2ccc(Cl)cc2C1=O (centres undefined),115 °C
7,COc1cc(N)c(Cl)cc1C(=O)NN1CCN(Cc2cccs2)CC1,225 to 226 °C
8,OC(CNC1CC1)c1ccc(Br)cc1 (centres undefined),105 to 107 °C
9,CC(C)C(NC(=O)c1ccccc1SSc1ccccc1C(=O)NC(C(=O)O)C(C)C)C(=O)O (centres undefined),226 to 228 °C
10,CCOC(=O)COc1cccc(C(N)=O)c1,158 to 159 °C
11,OC1(c2ccccn2)CCC2CCCC21 (centres undefined),66 to 66.5 °C
12,CCC1Nc2cc(C)cc(C)c2N1c1ccc(CCNC(=O)NS(=O)(=O)c2ccc(C)cc2)cc1 (centres undefined),108 to 112 °C
13,COc1nc(C)cnc1N(C(=O)OCC(C)C)S(=O)(=O)c1cccnc1-c1ccc(C)cc1,143 to 145 °C
14,Cn1ccc(-c2ccc(C(=O)N3Cc4cccn4Cc4ccccc43)c(Cl)c2)n1,148 to 150 °C
15,CN1CCN(C(=O)CC2c3ccccc3C(=O)N2c2ccc(Cl)cn2)CC1 (centres undefined),190 to 193 °C
16,CCCC(=O)Nc1cccc2c1C(=O)N(C1CCC(=O)NC1=O)C2=O (centres undefined),171 to 173 °C
17,CCOc1nn(-c2ccc(C(F)(F)F)cn2)cc1CCCOc1cc(CCC(=O)O)n(C)n1,137 to 138 °C
18,O=c1c(CCCCCCCc2ccncc2)cc2cccnc2n1-c1cccc([N+](=O)[O-])c1,189 to 192 °C
19,O=C(O)c1cccc(Oc2ncccc2OCCCc2ccncc2)c1,208 to 209 °C
20,CC(=O)c1c(C)nc2ccccc2c1NCc1cccc(Br)c1,109 °C
21,Nc1cccc2cc(-c3ccccc3)cnc12,64 to 66 °C
22,NCc1ccccc1-c1ccc(C(=O)N2Cc3ccc(C(=O)NCc4cccnc4)n3Cc3ccccc32)cc1,115 to 120 °C
23,COc1ccc(C(=O)Nc2cc(NC(=O)c3ccc(OCCN4CCCC4)cc3)ccc2C)cc1OC,258 to 259 °C
24,CC1Cc2ccccc2C(=O)C1n1ccnc1 (centres undefined),153 to 155 °C
